# Read-outs that look alike come from different tables or passages of the source.
# Assays:
# Format in all cases: in vivo
# [1] = system: Lolium rigidum (LOLRI); experiment: Post-emergence herbicidal action against LOLRI; conditions: dosage 320 g/ha
# In short: (§1)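 Post-emergence greenhouse spray, one-leaf stage, 600 l/ha water plus 0.5% additive; WP or EC formulations; application rates 320 g/ha or lower. Visual % damage vs untreated controls at ~3 weeks.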
# [2] = system: Verconica persica (VERPE); experiment: Post-emergence herbicidal action against VERPE
# In short: as §1
# [3] = system: Triticum aestivum (TRZAS); conditions: crop plant compatibility, 20 g/ha, effect vs untreated controls
# In short: (§2)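 Foliar application at the one-leaf stage: WP/EC formulation, 0.5% additive, 600 l/ha water. Greenhouse-grown in sandy loam. Endpoint is visual % injury relative to untreated controls at about 3 weeks.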
# [4] = system: Zea mays (ZEAMX); conditions: for Post-emergence action against ZEAMX in % (crop plant compatibility): 20 g/ha, effect in comparison to untreated controls; for Post-emergence action against ZEAMX in %: crop plant compatibility, 80 g/ha, effect vs untreated controls
# In short: as §2
# [5] = system: Oryza sativa (ORYSA); conditions: crop plant compatibility
# In short: as §2
# [6] = system: Polygonum convolvulus (POLCO); experiment: Post-emergence herbicidal action against POLCO
# In short: as §1
# [7] = system: Echinochloa crus-galli (ECHCG); experiment: Post-emergence herbicidal action against ECHCG
# In short: as §1
# [8] = system: Setaria viridis (SETVI); experiment: Post-emergence herbicidal action against SETVI
# In short: as §1
# [9] = system: Viola tricolor (VIOTR); experiment: Post-emergence herbicidal action against VIOTR
# In short: as §1
# [10] = system: Avena fatua (AVEFA); experiment: Post-emergence herbicidal action against AVEFA; conditions: 320 g/ha, visual rating about 3 weeks after treatment
# In short: as §1
# [11] = system: Matricaria inodora (MATIN); experiment: Post-emergence herbicidal action against MATIN
# In short: as §1
# [12] = system: Digitaria sanguinalis (DIGSA); experiment: Post-emergence herbicidal action against DIGSA; conditions: visual rating about 3 weeks after treatment
# In short: as §1
# [13] = system: Pharbitis purpurea (PHBPU); experiment: Post-emergence herbicidal action against PHBPU
# In short: as §1
# [14] = system: Amaranthus retroflexus (AMARE); experiment: Post-emergence herbicidal action against AMARE
# In short: as §1
# [15] = system: Abutilon theophrasti (ABUTH); experiment: Post-emergence herbicidal action against ABUTH; conditions: visual rating about 3 weeks after treatment vs untreated controls (100% = plants have died, 0% = like control plants)
# In short: as §1
# [16] = system: Alopecurus myosuroides (ALOMY); experiment: Post-emergence herbicidal action against ALOMY; conditions: 320 g/ha, visual rating about 3 weeks after treatment vs untreated controls (100% = plants have died, 0% = like control plants)
# In short: as §1
# [17] = 20 g/ha, effect vs untreated controls
# [18] = 320 g/ha, visual rating about 3 weeks after treatment
SMILES,Post-emergence action against LOLRI in % [1],"Post-emergence action against VERPE in % ([2]; 320 g/ha, VERPE)",Post-emergence action against VERPE in % ([2]; dosage 80 g/ha),Post-emergence action against TRZAS in % [3],Post-emergence action against ZEAMX in % (crop plant compatibility) [4],Post-emergence action against ZEAMX in % [4],"Post-emergence action against ORYSA in % [5, 17]",Post-emergence action against POLCO in % ([6]; dosage 80 g/ha),Post-emergence action against POLCO in % ([6]; dosage 320 g/ha),Post-emergence action against ECHCG in % ([7]; dosage 80 g/ha),Post-emergence action against ECHCG in % ([7]; dosage 320 g/ha),Post-emergence action against SETVI in % ([8]; dosage 320 g/ha),Post-emergence action against VIOTR in % ([9]; 320 g/ha),Post-emergence action against AVEFA in % [10],Post-emergence action against MATIN in % ([11]; dosage 80 g/ha),Post-emergence action against MATIN in % ([11]; dosage 320 g/ha),Post-emergence action against DIGSA in % ([12]; 320 g/ha),Post-emergence action against PHBPU in % ([13]; dosage 80 g/ha),Post-emergence action against PHBPU in % ([13]; dosage 320 g/ha),Post-emergence action against SETVI in % ([8]; dosage 80 g/ha),further results
O=C(O)COc1nn(-c2ncccc2F)c(-c2cncc(F)c2)c1Cl [Example I-169],80%,90%,80%,0%,10%,10%,0%,80%,80%,80%,90%,80%,80%,80%,80%,90%,90%,80%,90%,,"Post-emergence action against ORYSA in % ([5]; 80 g/ha, effect in comparison to untreated controls): 10%"
N#CCOC(=O)COc1nn(-c2ncccc2F)c(-c2ccc(F)nc2)c1C1CC1 [Example I-294],90%,90%,90%,10%,20%,,10%,,,80%,90%,90%,90%,90%,,90%,90%,,,90%,"Post-emergence action against AMARE in % [14, 18]: 80%; Post-emergence action against VIOTR in % ([9]; 80 g/ha): 90%; Post-emergence action against ABUTH in % ([15]; 320 g/ha): 80%; Post-emergence action against DIGSA in % ([12]; 80 g/ha): 80%; Post-emergence action against ALOMY in % [16]: 90%"
Cc1cccnc1-n1nc(OCC(=O)O)c(Cl)c1-c1cncc(F)c1 [Example I-182],,90%,80%,10%,10%,20%,10%,80%,90%,90%,90%,80%,90%,90%,80%,90%,100%,90%,90%,80%,"Post-emergence action against AMARE in % ([14]; 80 g/ha, visual rating about 3 weeks after treatment vs untreated controls (100% = plants have died, 0% = like control plants)): 80%; Post-emergence action against AMARE in % [14, 18]: 90%; Post-emergence action against VIOTR in % ([9]; 80 g/ha): 80%; Post-emergence action against ABUTH in % ([15]; 80 g/ha): 80%; Post-emergence action against ABUTH in % ([15]; 320 g/ha): 80%; Post-emergence action against DIGSA in % ([12]; 80 g/ha): 90%; Post-emergence action against ALOMY in % [16]: 80%"
